One experiment relates to SARS-CoV-2-NLuc. The experiment in a line: microbe, parasite or virus in culture. The format is cell-based, SARS Coronavirus 2.
For experiment [1], the target named is recombinant SARS-CoV-2 Main protease (Mpro) (Severe acute respiratory syndrome coronavirus 2 (2019-nCoV) (SARS-CoV-2), UniProt P0DTD1). The experiment in a line: Cov Mpro Biochemical IC50 Assay. The following applies: recombinant SARS-CoV-2 Mpro 7.5 nM, fluorogenic peptide substrate 40 μM; read-out: MPro IC50.
The mark [2] stands for this setting: Severe acute respiratory syndrome coronavirus, 48 h, read-out: MPro EC50.
[3] abbreviates: Severe acute respiratory syndrome coronavirus, 48 h; read-out: MPro EC50.

Each structure is given as a SMILES string. pEC50, pIC50: −log10 of the molar value. Read-outs that look alike come from different tables or passages of the source. Bounds are passed on as bounds.

Regarding `COc1cc(-c2cc3[nH]c(=O)n(-c4cncc5cccc(F)c45)c(=O)c3s2)c(C#N)cc1F` [Example 762], the pEC50 in the experiment on SARS-CoV-2-NLuc (setting [2]) is 7.69. Further, the pIC50 in experiment [1] is 8.14.

Consider `COc1cc(-c2cc3[nH]c(=O)n(-c4cncc5ccc(F)cc45)c(=O)c3s2)c(Cl)cc1F` [Example 763], for which the pEC50 in the experiment on SARS-CoV-2-NLuc (setting [2]) was 7.87. The pIC50 in experiment [1] is 7.99.

For the compound `COc1cc(-c2cc3[nH]c(=O)n(-c4cncc5nc(C)n(C)c45)c(=O)c3s2)c(Cl)cc1F` [Example 764], the pEC50 in the experiment with SARS-CoV-2-NLuc (setting [2]) is 6.59. In addition, the pIC50 in experiment [1] is 7.74.

Take `COc1cc(-c2cc3[nH]c(=O)n(-c4cncc5cnn(C)c45)c(=O)c3cc2OC)c(C#N)cc1F` [Example 765]: in the experiment on SARS-CoV-2-NLuc (setting [2]), the pEC50 was 7.03. For the same compound, the pIC50 in experiment [1] is 7.86.

`COc1cc(-c2cc3[nH]c(=O)n(-c4cncc5cnn(C)c45)c(=O)c3cc2F)c(C#N)cc1F` [Example 766]: in the experiment with SARS-CoV-2-NLuc (setting [2]), the pEC50 was 6.99. For the same compound, in experiment [1], the pIC50 was 7.72.

Turning to `COc1cc(-c2cc3[nH]c(=O)n(-c4cncc5[nH]cc(C)c45)c(=O)c3s2)c(Cl)cc1F` [Example 767], the pEC50 in the experiment with SARS-CoV-2-NLuc (setting [2]) is 7.69. The pIC50 in experiment [1] was 8.29.

As to `COc1cc(-c2cc3c(s2)c(=O)n(-c2cncc4[nH]nc(C)c24)c(=O)n3CCC#N)c(Cl)cc1F` [Example 768, 3-(6-(2-chloro-4-fluoro-5-methoxyphenyl)-3-(3-methyl-1H-pyrazolo[3,4-c]pyridin-4-yl)-2,4-dioxo-3,4-dihydrothieno[3,2-d]pyrimidin-1(2H)-yl)propanenitrile], the pEC50 in the experiment on SARS-CoV-2-NLuc (setting [2]) was 8.15. Besides, in experiment [1], the pIC50 is 8.28.

For `Cn1ncc2cncc(-n3c(=O)c4sc(-c5ccc(F)cc5Cl)cc4n(CCC#N)c3=O)c21` [Example 769, 3-(6-(2-chloro-4-fluorophenyl)-3-(1-methyl-1H-pyrazolo[4,3-c]pyridin-7-yl)-2,4-dioxo-3,4-dihydrothieno[3,2-d]pyrimidin-1(2H)-yl)propanenitrile], the pEC50 with SARS-CoV-2-NLuc (setting [3]) is 7.81. For the same compound, the pIC50 in experiment [1] is 8.07.

As for `COc1cc(-c2cc3c(s2)c(=O)n(-c2cc(C)cnc2F)c(=O)n3CCC#N)c(Cl)cc1F` [Example 770], in the experiment with SARS-CoV-2-NLuc (setting [3]), the pEC50 is 8.32. In addition, in experiment [1], the pIC50 is 8.21.

In the case of `Cc1cnc(F)c(-n2c(=O)c3sc(-c4ccccc4Cl)cc3n(CCC#N)c2=O)c1` [Example 771], the pEC50 in the experiment on SARS-CoV-2-NLuc (setting [3]) was 8.22. For the same compound, the pIC50 in experiment [1] is 8.43.

On to `Cn1nnc2cncc(-n3c(=O)c4sc(-c5ccccc5Cl)cc4n(CCC#N)c3=O)c21` [Example 772], for which the pEC50 with SARS-CoV-2-NLuc (setting [3]) is 7.33. For the same compound, in experiment [1], the pIC50 was 7.81.

Regarding `Cn1nnc2cncc(-n3c(=O)c4sc(-c5ccc(F)cc5Cl)cc4n(CCC#N)c3=O)c21` [Example 773, 3-[6-(2-chloro-4-fluoro-phenyl)-3-(1-methyltriazolo[4,5-c]pyridin-7-yl)-2,4-dioxo-thieno[3,2-d]pyrimidin-1-yl]propanenitrile], the pEC50 with SARS-CoV-2-NLuc (setting [2]) is 7.17. The negative logarithm of the IC50 (pIC50) in experiment [1] was 7.59.

For `Cn1ncc2cncc(-n3c(=O)c4sc(-c5cc(Cl)ccc5C#N)cc4n(CCC#N)c3=O)c21` [Example 774], the pEC50 in the experiment on SARS-CoV-2-NLuc (setting [2]) was 7.71. Moreover, the pIC50 in experiment [1] is 8.20.

Take `Cn1ncc2cncc(-n3c(=O)c4sc(-c5ccc(C(F)(F)F)cc5C#N)cc4n(CCC#N)c3=O)c21` [Example 775]: in the experiment with SARS-CoV-2-NLuc (setting [2]), the pEC50 is under 6.00. In addition, the pIC50 in experiment [1] was 6.22.

With `COc1cc(-c2cc3c(s2)c(=O)n(-c2cncc4cnn(C)c24)c(=O)n3CCC#N)c(C#N)cn1` [Example 776], the pEC50 in the experiment with SARS-CoV-2-NLuc (setting [2]) was 6.24. Also, in experiment [1], the pIC50 is 6.63.

Consider `COc1cnc(C#N)c(-c2cc3c(s2)c(=O)n(-c2cncc4cnn(C)c24)c(=O)n3CCC#N)c1` [Example 777], for which the pEC50 with SARS-CoV-2-NLuc (setting [2]) is 6.60. The pIC50 in experiment [1] is 7.61.

With `Cn1ncc2cncc(-n3c(=O)c4sc(-c5cc(F)ccc5C#N)cc4n(CCC#N)c3=O)c21` [Example 778], the negative logarithm of the EC50 (pEC50) in the experiment with SARS-CoV-2-NLuc (setting [2]) is 6.75. Moreover, the pIC50 in experiment [1] was 7.72.

For the compound `Cc1cc(-c2cc3c(s2)c(=O)n(-c2cncc4cnn(C)c24)c(=O)n3CCC#N)c(C#N)cc1F` [Example 779], in the experiment on SARS-CoV-2-NLuc (setting [2]), the pEC50 was 7.17. In addition, the pIC50 in experiment [1] was 7.62.

For `COc1cc(-c2cc3c(s2)c(=O)n(-c2cnc(F)c(C)c2)c(=O)n3CCC#N)c(C#N)cc1F` [Example 780], in the experiment with SARS-CoV-2-NLuc (setting [2]), the pEC50 is 7.27. Also, in experiment [1], the pIC50 was 7.76.

As to `Cn1ncc2cncc(-n3c(=O)c4sc(-c5ccccc5Cl)cc4n(CCC#N)c3=O)c21` [Example 781], in the experiment with SARS-CoV-2-NLuc (setting [2]), the pEC50 is 8.32. In experiment [1], the pIC50 is 8.30.

Consider `Cn1ncc2cncc(-n3c(=O)c4sc(-c5ccccc5C#N)cc4n(CCC#N)c3=O)c21` [Example 782, 2-(1-(2-cyanoethyl)-3-(1-methyl-1H-pyrazolo[4,3-c]pyridin-7-yl)-2,4-dioxo-1,2,3,4-tetrahydrothieno[3,2-d]pyrimidin-6-yl)benzonitrile], for which the pEC50 with SARS-CoV-2-NLuc (setting [2]) is 7.40. Besides, the negative logarithm of the IC50 (pIC50) in experiment [1] was 7.81.

Consider `Cc1cccc(C#N)c1-c1cc2c(s1)c(=O)n(-c1cncc3cnn(C)c13)c(=O)n2CCC#N` [Example 783], for which the pEC50 in the experiment on SARS-CoV-2-NLuc (setting [2]) is 6.34. For the same compound, the pIC50 in experiment [1] was 6.70.

Regarding `Cc1ccc(C#N)c(-c2cc3c(s2)c(=O)n(-c2cncc4cnn(C)c24)c(=O)n3CCC#N)c1` [Example 784], the pEC50 in the experiment with SARS-CoV-2-NLuc (setting [2]) was 7.33. Besides, the pIC50 in experiment [1] was 7.97.

Consider `Cn1ncc2cncc(-n3c(=O)c4sc(-c5ccc(F)cc5C#N)cc4n(CCC#N)c3=O)c21` [Example 785], for which, in the experiment on SARS-CoV-2-NLuc (setting [2]), the pEC50 is 6.86. In addition, the pIC50 in experiment [1] was 7.42.

For the compound `Cc1cc(C#N)c(-c2cc3c(s2)c(=O)n(-c2cncc4cnn(C)c24)c(=O)n3CCC#N)cc1F` [Example 786], the pEC50 with SARS-CoV-2-NLuc (setting [2]) was 6.78. For the same compound, the pIC50 in experiment [1] is 7.55.

As to `N#CCCn1c(=O)n(-c2cncc(Cl)c2)c(=O)c2sc(-c3ccc(F)cc3Cl)cc21` [Example 787], in the experiment on SARS-CoV-2-NLuc (setting [2]), the pEC50 was 7.48. The pIC50 in experiment [1] is 7.89.

On to `N#CCCn1c(=O)n(-c2cncc(F)c2)c(=O)c2sc(-c3ccc(F)cc3Cl)cc21` [Example 788], for which the pEC50 with SARS-CoV-2-NLuc (setting [2]) is 7.28. Moreover, the pIC50 in experiment [1] is 7.45.

In the case of `Cn1ncc2cncc(-n3c(=O)c4sc(-c5cc(F)ccc5Cl)cc4n(CCC#N)c3=O)c21` [Example 789], in the experiment with SARS-CoV-2-NLuc (setting [2]), the pEC50 is 8.32. Further, the pIC50 in experiment [1] is 8.24.

Consider `Cn1ncc2cncc(-n3c(=O)c4sc(-c5cc(F)c(F)cc5Cl)cc4n(CCC#N)c3=O)c21` [Example 790, 3-[6-(2-chloro-4,5-difluoro-phenyl)-3-(1-methylpyrazolo[4,3-c]pyridin-7-yl)-2,4-dioxo-thieno[3,2-d]pyrimidin-1-yl]propanenitrile], for which the pEC50 in the experiment on SARS-CoV-2-NLuc (setting [2]) is 7.84. Moreover, the pIC50 in experiment [1] is 7.90.

As for `COc1cc(Cl)c(-c2cc3c(s2)c(=O)n(-c2cncc4cnn(C)c24)c(=O)n3CCC#N)cc1Cl` [Example 791], the pEC50 in the experiment with SARS-CoV-2-NLuc (setting [2]) was 8.04. Further, in experiment [1], the pIC50 is 8.16.

Regarding `COc1cc(Cl)c(-c2cc3c(s2)c(=O)n(-c2cncc4cnn(C)c24)c(=O)n3CCC#N)cc1F` [Example 792], the pEC50 in the experiment with SARS-CoV-2-NLuc (setting [2]) is 7.91. Moreover, in experiment [1], the pIC50 was 8.08.

As for `Cn1ncc2cncc(-n3c(=O)c4sc(-c5cc(Cl)ccc5Cl)cc4n(CCC#N)c3=O)c21` [Example 793], the pEC50 in the experiment on SARS-CoV-2-NLuc (setting [2]) is 8.30. Besides, the negative-log IC50 (pIC50) in experiment [1] is 8.18.

With `Cn1ncc2cncc(-n3c(=O)c4sc(-c5cc(F)c(F)cc5C#N)cc4n(CCC#N)c3=O)c21` [Example 794], the pEC50 in the experiment on SARS-CoV-2-NLuc (setting [2]) is under 6.00. Further, in experiment [1], the pIC50 was 7.50.
